The results in this text go back to patent US8946234B2, “Halogen-substituted compounds” (Bayer CropScience AG, priority 2008, dated 2015).

One data set is described as follows: physchem. Format: physicochemical.
Conditions: not given
As to the method: ^a) Note regarding the determination of the log P values and mass detection: The log P values given were determined in accordance with EEC Directive 79/831 Annex V.A8 by HPLC (High Performance Liquid Chromatography) on a phase inversion column (C18). Agilent 1100 LC system; 50*4.6 Zorbax Eclipse Plus C18 1.8 micron; eluent A: acetonitrile (0.1% formic acid); eluent B: water (0.09% formic acid); linear gradient from 10% acetonitrile to 95% acetonitrile in 4.25 min, then 95% acetonitrile for a further 1.25 min; oven temperature 55° C.; flow: 2.0 ml/min. The mass detection is carried out via an Agilend MSD system.
Take `O=C(NCc1ccccc1)c1cc(NC(=O)c2cnc(C(F)(F)F)nc2C(F)(F)F)ccc1Cl` [Ib-6]: the logP is 3.39^a).
For the compound `C=CCNC(=O)c1cc(NC(=O)c2ccc(C(F)(F)F)nc2Cl)c(C)cc1Cl` [Ir-7], the logP was 2.68^a).
Turning to `Cn1nc(C(F)(F)C(F)(F)F)c(C(F)(F)F)c1C(=O)Nc1ccc(F)c(C(=O)NCc2ccccc2)c1` [Ik-157], the logP was 3.95^a).
For `Cn1nc(C(F)(F)C(F)(F)F)c(C(F)(F)F)c1C(=O)Nc1cc(Cl)c(Br)c(C(=O)NC2CC2)c1` [Ik-213], the logP is listed as 3.81^a).
As for `Cn1nc(-c2ccc(OC(F)(F)F)cc2)c(Br)c1C(=O)Nc1ccc(Cl)c(C(=O)NC2CC2)c1` [Ik-251], the logP is on record as 3.76^a).
As for `Cn1nc(C(F)(F)C(F)(F)F)c(I)c1C(=O)Nc1ccc(Cl)c(C(=O)NCC(F)(F)F)c1` [Ik-99], the logP is recorded as 3.52^a).
On to `Cn1nc(C(F)(F)C(F)(F)F)c(C(F)(F)F)c1C(=O)Nc1cc(Cl)cc(C(=O)NC2CC2)c1Cl` [Ik-170], for which the logP is reported as 3.78^a).
Take `Cn1nc(C(F)(F)C(F)(F)F)c(C(F)(F)F)c1C(=O)Nc1ccc(OC(F)F)c(C(=O)O)c1` [Ik-104]: the logP was 3.23^a).
Still for that read-out and setting: the result for `Cn1nc(C(F)(F)C(F)(F)F)c(C(F)(F)F)c1C(=O)Nc1cc(C(=O)NCc2ccccc2)c(Cl)cc1F` [Ik-142] reads 4.00^a); that for `Cn1nc(-c2cc(C(F)(F)F)cc(C(F)(F)F)c2)c(C(F)(F)F)c1C(=O)Nc1ccc(Cl)c(C(=O)NC2CC2)c1` [Ik-259], 4.19^a).
As to `Cc1nc(C(F)(F)F)ncc1C(=O)Nc1ccc(Cl)c(C(=O)NCc2ccccc2)c1` [Ib-22], the logP is 2.94^a).
Same read-out and setting: the result for `CCC(C)NC(=O)c1cc(NC(=O)c2c(C(F)(F)F)c(C(F)(F)C(F)(F)F)nn2C)ccc1Cl` (stereo not shown) [Ik-91] reads 3.87^a); that for `Cn1nc(C(F)(F)C(F)(F)F)c(C(F)(F)F)c1C(=O)Nc1ccc(F)c(C(=O)NCC(F)(F)F)c1` [Ik-156], 3.66^a).
Regarding `O=C(NC1CC1)c1cc(NC(=O)c2cnc(C(F)(F)F)nc2C(F)(F)F)ccc1Cl` [Ib-3], the logP was 2.78^a).
With `O=C(NCC(F)(F)F)c1cc(NC(=O)c2ccc(C(F)(F)F)nc2Cl)ccc1Cl` [Ir-9], the logP is 2.82^a).
Take `Cn1nc(C(F)(F)C(F)(F)F)c(C(F)(F)F)c1C(=O)Nc1cc(C(=O)NCC(F)(F)F)c(Cl)cn1` [Ik-317]: the logP was 3.61^a).
On the same count and under the same terms, next, `O=C(NC1CC1)c1cc(NC(=O)c2[nH]nc(C(F)(F)F)c2C(F)(F)F)ccc1Cl` [Ik-197]: 2.55^a).
The same measure, in the same setting: the result for `CN(C(=O)c1c(C(F)(F)F)c(C(F)(F)C(F)(F)F)nn1C)c1ccc(Cl)c(C(=O)NCc2ccccc2)c1` [Ik-134] reads 3.94^a); that for `O=C(NCC(F)(F)F)c1cc(NC(=O)c2cnc(C(F)(F)C(F)(F)F)nc2C(F)F)ccc1Cl` [Ib-28], 3.27^a).
Take `Cn1nc(-c2ccc(Cl)cc2Cl)c(Br)c1C(=O)Nc1ccc(Cl)c(C(=O)NC2CC2)c1` [Ik-250]: the logP was 3.59^a).
Regarding `Cn1nc(OCC(F)(F)F)c(Cl)c1C(=O)Nc1ccc(Cl)c(C(=O)NC2CC2)c1` [Ik-242], the logP was 2.89^a).
Take `Cn1nc(C(F)(F)C(F)(F)F)c(C(F)(F)F)c1C(=O)Nc1ccc(OC(F)F)c(C(=O)NC2CC2)c1` [Ik-25]: the logP is reported as 3.49^a).
With `Cn1nc(C(F)(F)C(F)(F)F)c(C(F)(F)F)c1C(=O)Nc1cc(Br)c(I)c(C(=O)NCC(F)(F)F)c1` [Ik-212], the logP is reported as 4.15^a).
On to `Cn1nc(C(F)(F)C(F)(F)F)c(C(F)(F)F)c1C(=O)Nc1cc(F)c(I)c(C(=O)NC2CC2)c1` [Ik-225], for which the logP is 3.63^a).
With `CC(Oc1cc(C(F)(F)F)c(C(=O)Nc2ccc(Cl)c(C(=O)NC3CC3)c2)cn1)C(F)(F)F` (stereo not shown) [Ij-2], the logP is listed as 3.32^a).
With `Cc1nc(C(F)(F)F)ccc1C(=O)Nc1ccc(Cl)c(C(=O)NC2CC2)c1` [Ir-2], the logP is on record as 2.27^a).
On to `Cn1nc(C(F)(F)F)c(Cl)c1C(=O)Nc1ccc(Cl)c(C(=O)NCc2ccccc2)c1` [Ik-20], for which the logP is 3.46^a).
With `Cn1nc(C(F)(F)C(F)(F)F)c(C(F)(F)F)c1C(=O)Nc1cc(F)c(S(C)(=O)=O)c(C(=O)NC2CC2)c1` [Ik-194], the logP was 2.92^a).
`CCn1nc(C(F)(F)C(F)(F)F)c(C(F)(F)F)c1C(=O)Nc1ccc(Cl)c(C(=O)NC2CC2)c1` [Ik-217]: the logP is listed as 3.63^a).
Still for that read-out and setting: the result for `C=CCc1c(C(F)(F)C(F)(F)F)nn(C)c1C(=O)Nc1ccc(Cl)c(C(=O)NC2CC2)c1` [Ik-262] reads 3.37^a).
For `Cn1nc(C(F)(F)F)c(Cl)c1C(=O)Nc1ccc(Cl)c(C(=O)NC2CC2F)c1` (stereo not shown) [Ik-153], the logP is on record as 2.86^a).
As for `Cn1nc(C(F)(F)C(F)(F)F)c(C(F)(F)F)c1C(=O)Nc1ccc(Cl)c(C(=O)NCCF)c1` [Ik-88], the logP was 3.21^a).
As for `Cn1nc(C(F)(F)C(F)(F)F)c(Br)c1C(=O)Nc1ccc(Cl)c(C(=O)NCC=CCl)c1` [Ik-28], the logP was 3.64^a).
Consider `CC(C)NC(=O)c1cc(NC(=O)c2ccc(C(F)(F)F)nc2Cl)ccc1Cl` [Ir-3], for which the logP is listed as 2.68^a).
As for `Cn1nc(-c2ccc(C(F)(F)F)cc2)c(Br)c1C(=O)Nc1ccc(Cl)c(C(=O)NCC(F)(F)F)c1` [Ik-253], the logP was 3.99^a).
For the compound `CC(C)NC(=O)c1cc(NC(=O)c2ncc(C(F)(F)F)cc2Cl)ccc1Cl` [Ii-2], the logP is given as 2.73^a).
Consider `Cn1nc(C(F)(F)C(F)(F)F)c(C(F)(F)F)c1C(=O)Nc1cc(Br)c(Cl)c(C(=O)NC2CC2)c1` [Ik-7], for which the logP is given as 3.81^a).
For the compound `Cn1nc(OCC(F)(F)F)cc1C(=O)Nc1ccc(Cl)c(C(=O)NCC(F)(F)F)c1` [Ik-246], the logP is on record as 2.92^a).
Consider `Cn1nc(-c2ccccc2Cl)c(Br)c1C(=O)Nc1ccc(Cl)c(C(=O)NCC(F)(F)F)c1` [Ik-252], for which the logP is 3.41^a).
Consider `Cn1nc(C(F)(F)C(F)(F)F)c(C(F)(F)F)c1C(=O)Nc1cc(C(=O)NC2CC2)c(Cl)cc1F` [Ik-143], for which the logP is on record as 3.39^a).
Consider `Cn1nc(C(F)(F)C(F)(F)F)c(C(F)(F)F)c1C(=O)Nc1cc(Br)c(I)c(C(=O)NCc2ccccc2)c1` [Ik-211], for which the logP is 4.49^a).
On to `O=C(NC1CC1)c1cc(NC(=O)c2c(C(F)(F)F)c(C(F)(F)C(F)(F)F)nn2-c2ccccc2)ccc1Cl` [Ik-176], for which the logP is on record as 4.00^a).
As for `Cn1nc(OC(F)F)c(Cl)c1C(=O)Nc1ccc(Cl)c(C(=O)NC2CC2)c1` [Ik-238], the logP is given as 2.52^a).
Regarding `Cn1nc(C(F)(F)C(F)(F)F)c(C(F)(F)F)c1C(=O)Nc1cc(C(=O)NCC(F)(F)F)c(Cl)cc1F` [Ik-144], the logP was 3.73^a).
Regarding `Cn1nc(C(F)(F)F)c(C(F)(F)F)c1C(=O)Nc1ccc(Cl)c(C(=O)NCC=CCl)c1` [Ik-196], the logP was 3.28^a).

The same data set, now with this note: HPLC method a), eluent acetonitrile/water with formic acid; read-out: logP.
`Cn1ccc(C(F)(F)C(F)(F)C(F)(F)C(F)(F)F)n1` [1-Methyl-3-nonafluorobutyl-1H-pyrazole]: the chromatographic logP turned out to be 3.38.
For `Cn1nc(C(F)(F)C(F)(F)C(F)(F)C(F)(F)F)cc1C(=O)O` [1-Methyl-3-nonafluorobutyl-1H-pyrazole-5-carboxylic acid], the chromatographic logP is 3.01.
As to `CCOC(=O)c1cnc(C(F)(F)C(F)(F)C(F)(F)F)nc1C(F)(F)F` [Ethyl 2-(heptafluoropropyl)-4-(trifluoromethyl)pyrimidine-5-carboxylate], the chromatographic logP amounted to 4.32.
As to `Cn1nc(C(F)(F)C(F)(F)F)c(C(F)(F)F)c1C(=O)O` [1-Methyl-3-pentafluoroethyl-4-trifluoromethyl-1H-pyrazole-5-carboxylic acid], the chromatographic logP amounted to 1.86.

The data set is the same for the next values; noted with them: HPLC on C18 phase inversion column, method a).
Take `COCn1nc(C(F)(F)C(F)(F)F)c(C(F)(F)F)c1C(=O)Nc1ccc(Cl)c(C(=O)NCC(F)(F)F)c1` [Ik-220]: the logP is reported as 3.82^a).

The data set is the same for the next values; noted with them: HPLC phase inversion (reversed-phase) C18 column, HPLC method a), eluent acetonitrile/water with formic acid; read-out: logP.
In the case of `COC(=O)c1cc(N)ncc1Cl` [methyl 2-amino-5-chloroisonicotinate], the chromatographic logP was determined as 1.3.
For the compound `Cn1nc(C(F)(F)C(F)(F)F)c(C(F)(F)F)c1C(=O)Nc1cc(C(=O)N[C@@H]2C[C@@H]2F)c(Br)cn1` [Ik-128, 5-Bromo-N-[(1R,2S)-2-fluorocyclopropyl]-2-({[1-methyl-3-(pentafluoroethyl)-4-(trifluoromethyl)-1H-pyrazol-5-yl]carbonyl}amino)isonicotinamide], the chromatographic logP is 3.19.
On the same count and under the same terms, next, `Cn1nc(C(F)(F)C(F)(F)F)c(C(F)(F)F)c1C(=O)Nc1cc(C(=O)O)c(Br)cn1` [5-bromo-2-({[1-methyl-3-(pentafluoroethyl)-4-(trifluoromethyl)-1H-pyrazol-5-yl]carbonyl}amino)isonicotinic acid]: 2.85.
`O=C(NC1CC1)c1cc(NC(=O)c2ncc(OCC(F)(F)F)cc2C(F)(F)F)ccc1Cl` [Ii-7, N-[4-Chloro-3-(cyclopropylcarbamoyl)phenyl]-5-(2,2,2-trifluoroethoxy)-3-(trifluoromethyl)pyridine-2-carboxamide]: the chromatographic logP turned out to be 2.9.
Take `Cn1nc(C(F)(F)C(F)(F)F)c(C(F)(F)F)c1C(=O)Nc1ccnc(C(=O)NC2CC2(F)F)c1` (stereo not shown) [Ik-130, N-[2-(2,2-Difluorocycloprop-1-ylcarbamoyl)pyrid-4-yl]-1-methyl-3-(pentafluoroethyl)-4-(trifluoromethyl)-1H-pyrazole-5-carboxamide]: the chromatographic logP came to 3.59.
Take `Cn1nc(C(F)(Cl)C(F)(F)F)c(Br)c1C(=O)O` (stereo not shown) [4-Bromo-1-methyl-3-(1-chloro-1,2,2,2-tetrafluoroethyl)-1H-pyrazole-5-carboxylic acid]: the chromatographic logP came out at 2.43.

Staying with this data set, now noted: HPLC phase inversion (reversed-phase) C18 column, HPLC on C18 phase inversion column, method a); read-out: logP.
As for `Cn1nc(C(F)(F)C(F)(F)F)c(C(F)(F)F)c1C(=O)Nc1cc(C(=O)N[C@@H]2C[C@@H]2F)c(Br)cn1` [Ik-128, 5-Bromo-N-[(1R,2S)-2-fluorocyclopropyl]-2-({[1-methyl-3-(pentafluoroethyl)-4-(trifluoromethyl)-1H-pyrazol-5-yl]carbonyl}amino)isonicotinamide], the chromatographic logP turned out to be 3.19.
In the case of `Cn1nc(C(F)(F)C(F)(F)F)c(C(F)(F)F)c1C(=O)Nc1ccnc(C(=O)NC2CC2(F)F)c1` (stereo not shown) [Ik-130, N-[2-(2,2-Difluorocycloprop-1-ylcarbamoyl)pyrid-4-yl]-1-methyl-3-(pentafluoroethyl)-4-(trifluoromethyl)-1H-pyrazole-5-carboxamide], the chromatographic logP was 3.59.
